Results as given in ChEMBL document CHEMBL4316605, “3-Acyltetramic acids as a novel class of inhibitors for human kallikreins 5 and 7” (Bioorg Med Chem Lett, 2019).

Legend:
[1] = target: Kallikrein-5 (Homo sapiens) (UniProt Q9Y337); experiment: Inhibition of human KLK5 assessed as residual enzyme activity at 10 uM
Kallikrein-7 [2] = target: T1, Kallikrein-7 (Homo sapiens, UniProt P49862); experiment: Inhibition of human KLK7 assessed as residual enzyme activity at 10 uM
Target sequence in this assay (P49862 30-253 limits assumed): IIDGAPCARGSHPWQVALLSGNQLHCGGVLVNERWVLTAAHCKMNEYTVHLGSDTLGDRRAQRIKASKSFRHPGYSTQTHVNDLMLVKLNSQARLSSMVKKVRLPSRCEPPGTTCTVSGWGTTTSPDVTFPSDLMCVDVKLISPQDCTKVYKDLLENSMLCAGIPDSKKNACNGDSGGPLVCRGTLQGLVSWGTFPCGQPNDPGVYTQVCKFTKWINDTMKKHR

Kallikrein-7 [3] = target: T1, Kallikrein-7; experiment: Inhibition of human KLK7 assessed as reduction in enzyme activity
Target sequence in this assay (P49862 whole entry): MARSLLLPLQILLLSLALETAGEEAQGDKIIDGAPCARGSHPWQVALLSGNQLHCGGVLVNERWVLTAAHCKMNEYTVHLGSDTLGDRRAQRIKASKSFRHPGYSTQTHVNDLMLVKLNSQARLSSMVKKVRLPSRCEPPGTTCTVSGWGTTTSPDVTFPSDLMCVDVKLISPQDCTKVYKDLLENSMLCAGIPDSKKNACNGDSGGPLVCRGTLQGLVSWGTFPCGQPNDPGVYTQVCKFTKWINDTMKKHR

Kallikrein-5 = target: T2, Kallikrein-5 (Homo sapiens, UniProt Q9Y337); experiment: Inhibition of human KLK5 assessed as reduction in enzyme activity
T2 sequence (Q9Y337 whole entry): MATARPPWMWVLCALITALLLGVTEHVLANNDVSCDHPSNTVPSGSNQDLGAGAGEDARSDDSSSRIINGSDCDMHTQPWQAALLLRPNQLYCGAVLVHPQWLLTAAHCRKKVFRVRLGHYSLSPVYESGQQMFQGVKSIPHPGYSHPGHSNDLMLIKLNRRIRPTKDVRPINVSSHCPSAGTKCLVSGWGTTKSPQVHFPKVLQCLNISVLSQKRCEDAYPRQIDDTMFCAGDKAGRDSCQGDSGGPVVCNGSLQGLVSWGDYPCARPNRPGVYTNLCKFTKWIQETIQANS

Trypsin [4] = target: T3, Trypsin (Homo sapiens, UniProt P07477+P07478+P35030); experiment: Inhibition of trypsin (unknown origin) assessed as reduction in enzyme activity; assay type: protein assay
Trypsin [5] = target: T3, Trypsin; experiment: Inhibition of trypsin (unknown origin) assessed as residual enzyme activity at 10 uM; assay type: protein assay
[6] = target: Chymotrypsin (Homo sapiens) (UniProt Q99895+P17538+P40313+Q6GPI1); experiment: Inhibition of Chymotrypsin (unknown origin) assessed as residual enzyme activity at 10 uM; assay type: protein assay

| Structure (SMILES) | Activity [1] [%] | Activity (Kallikrein-7 [2]) [%] | IC50 (Kallikrein-7 [3]) [nM] | IC50 (Kallikrein-5) [nM] | IC50 (Trypsin [4]) [nM] | Activity (Trypsin [5]) [%] | Activity [6] [%] |
| --- | --- | --- | --- | --- | --- | --- | --- |
| CCCCC/C=C\C/C=C\CCCCCCC/C(O)=C1/C(=O)[C@H](Cc2ccccc2)N(C(=O)OC(C)(C)C)C1=O | 50 | 50 | 14000 | 14000 | – | – | – |
| CCCCCCCC/C=C\CCCCCCC/C(O)=C1/C(=O)[C@H](Cc2ccccc2)N(C(=O)OC(C)(C)C)C1=O | 0 | 0 | 2500 | 1800 | 2300 | 5 | 87 |
| CCCCCCCCCCCCCCCCC/C(O)=C1/C(=O)[C@H](Cc2ccccc2)N(C(=O)OC(C)(C)C)C1=O | 0 | 0 | 2800 | 17000 | – | – | – |
| CC/C(O)=C1/C(=O)[C@H](Cc2ccccc2)N(C(=O)OC(C)(C)C)C1=O | 80 | 50 | 11000 | – | – | – | – |
| CC(C)C/C(O)=C1/C(=O)[C@H](Cc2ccccc2)N(C(=O)OC(C)(C)C)C1=O | 80 | 70 | – | – | – | – | – |
| CCCCCCCCCCCCCCC/C(O)=C1/C(=O)[C@H](Cc2ccccc2)N(C(=O)OC(C)(C)C)C1=O | 0 | 0 | 2900 | 12000 | – | – | – |

Further molecules by falling IC50 (Kallikrein-7 [3]), results first:

| Activity [1] [%] | Activity (Kallikrein-7 [2]) [%] | IC50 (Kallikrein-7 [3]) [nM] | IC50 (Kallikrein-5) [nM] | IC50 (Trypsin [4]) [nM] | Activity (Trypsin [5]) [%] | Activity [6] [%] | Structure (SMILES) |
| --- | --- | --- | --- | --- | --- | --- | --- |
| 0 | 0 | 2500 | 8000 | – | – | – | CCCC(C)/C(O)=C1/C(=O)[C@H](Cc2ccccc2)N(C(=O)OC(C)(C)C)C1=O (some centres not stated) |
| 0 | 0 | 2300 | 3600 | 2100 | 10 | 98 | CCCCCCCCCCC/C(O)=C1/C(=O)[C@H](Cc2ccccc2)N(C(=O)OC(C)(C)C)C1=O |
| 0 | 0 | 1700 | 4900 | 2400 | 20 | 90 | CCCCCCCCCCCCC/C(O)=C1/C(=O)[C@H](Cc2ccccc2)N(C(=O)OC(C)(C)C)C1=O |
